In paper PMC9354954, “Assessing Bioavailability and Bioactivity of 4-Hydroxythiazolidine-2-Thiones, Newly Discovered Glucosinolate Degradation Products Formed During Domestic Boiling of Cabbage” (Frontiers in Nutrition, 2022):

Tests used:
HepG2 cells = experiment: Cytotoxicity, MTT assay; assay type: cell-based, human; conditions: up to 100 μM, 24 h
Method: (§1) To determine the cytotoxicity of allyl HTT and 4-MSOB HTT, HepG2 and Caco-2 cells were seeded in a 96-well TC-plate (standard F, sterile, from Sarsted, Nümbrecht, Germany) using a seeding density of 20,000 cells/well. After 24 h, the medium was exchanged to 200 μL pure medium or 200 μL medium containing allyl HTT or 4-MSOB HTT with concentrations in the range of 0.1–100 μM. The cells were treated for 24 h under cell culture conditions (prepared for three biological replicates, every 3 technical replicates). Cell viability was determined using the MTT assay and the neutral red uptake assay based on Schröter et al. ([27]). In the case of MTT assay, after 24 h of HTT treatment, 20 μL of MTT solution (75 mg MTT in 15 mL PBS) were added, and cells were incubated for 60 min under cell culture conditions. Afterward, the supernatant was removed and 100 μL of lysis buffer (5% formic acid in isopropanol) was added and the plate was shaken for 10 min at 300 rpm before measuring the absorption at 550 ± 5 nm (reference 690 ± 5 nm) by a Tecan i-control Infinite M200 PRO plate reader (Crailsheim, Germany). In the case of the neutral red uptake assay, the supernatant was removed after 24 h HTT treatment, and 100 μL neutral red solution (40 mg neutral red in 10 mL PBS, freshly diluted 1:100 with medium and incubated for 24 h under cell culture conditions) was added. After incubation of neutral red solution for 2 h under cell culture conditions, the supernatant was removed, and cells were washed with 150 μL of PBS. After removing PBS, 150 μL desorb solution (49.5% water/49.5% ethanol/1% acetic acid) was added and the plate was shaken for 10 min at 300 rpm before measuring the absorption at 540 ± 5 nm by Tecan i-control Infinite M200 PRO plate reader. The mean ± SD is used for presenting the results of three technical replicates for each data point of the three biological replicates.

Caco-2 cells = experiment: Cytotoxicity, MTT assay; assay type: cell-based, human; conditions: Caco-2, MTT assay, up to 100 μM, 24 h
Method: as §1

[1] = Uptake and excretion from red cabbage broth, human self-experiment (24 h urine, LC-MS/MS); assay type: in vivo; conditions: male, 500 mL red cabbage broth, oral, n = 3, mean ± SD, read-out: recovery in collected urine within 24 h compared to the amount of intake
Method: To obtain the GLS degradation products allyl HTT and 4-MSOB HTT in the food matrix, a kitchen practice approach was applied. Therefore, 1.2 kg of fresh conventional red cabbage (Brassica oleracea var. capitata f. rubra) bought in a supermarket were cut into approximately 4 × 4 × 4 cm pieces and boiled for 1 h in 3 L of tap water without additives in a stainless-steel pot with a glass lid on a kitchen stove. After cooling to room temperature, three male authors of this study (27–39 years) drank 500 mL of the red cabbage boiling solution (broth) without red cabbage pieces. […] In total, 950 μL of 1:1 diluted red cabbage boiling solution was measured in 3 different ways (each prepared as duplicates): (1) Spiked with 50 μL water, (2) spiked with 50 μL of a solution with concentrations of 1 μM for allyl HTT and 5 μM for 4-MSOB HTT, or (3) spiked with 50 μL of a solution with concentrations of 3 μM for allyl HTT and 10 μM for 4-MSOB HTT. Urine samples were measured in three different ways (each prepared as duplicates): 200 μL of undiluted urine was spiked with (1) 1 μL of water, (2) 1 μL of a solution with concentrations of 4 μM for allyl HTT and 8 μM for 4-MSOB HTT, or (3) 1.5 μL of a solution with concentrations of 4 μM for allyl HTT and 8 μM for 4-MSOB HTT. […]

[2] = Antioxidant potential, ABTS assay; conditions: compared to compound free blank
Method: To evaluate the potential of allyl HTT and 4-MSOB HTT to act as antioxidants, ABTS and DPPH were used as model radicals and Trolox as reference antioxidants based on Shalaby and Shanab ([28]). In total, 1.5 mg of ABTS and 0.26 mg potassium peroxodisulfate were dissolved in 4 mL of pure water and incubated in the dark overnight at room temperature. Afterward, 36 mL of MeOH were added to obtain the fresh ABTS working solution. In the case of the DPPH assay, 1.1 mg of DPPH were dissolved in 4 mL of MeOH and incubated for 2 h in the dark at 4°C, followed by the addition of 36 mL of MeOH to obtain the fresh DPPH working solution. Standards of Trolox, allyl HTT, and 4-MSOB HTT were prepared in water/MeOH (90/10, v/v%) at concentrations in the range of 6.25–100 μM. To detect the antioxidant potential, 100 μL of standard or water/MeOH (90/10, v/v%) as control were added to 1,000 μL of ABTS or DPPH working solution, and the extinction was measured directly after mixing and after 6 min of incubation in the dark with a spectrometer (UviLine 9100, Schott Instruments, Mainz, Germany) at 734 nm in the case of ABTS assay and 515 nm in DPPH assay (each prepared as duplicate). The results are reported as mean ± SD of the reduction of the extinction compared to the control.

SMILES	effect on cell viability compared to untreated cells (HepG2 cells)	effect on cell viability compared to untreated cells (Caco-2 cells)	dose excreted [1] [%]	Relative signal reduction of the extinction value of the radical ABTS ([2]; 6.25 µM) [%]	Relative signal reduction of the extinction value of the radical ABTS ([2]; 12.5 µM) [%]	Relative signal reduction of the extinction value of the radical ABTS ([2]; 25 µM) [%]	Relative signal reduction of the extinction value of the radical ABTS ([2]; 50 µM) [%]	Relative signal reduction of the extinction value of the radical ABTS ([2]; 100 µM) [%]
C[S+]([O-])CCCCN1C(=S)SCC1O (stereo not shown) [4-MSOB HTT, 4-hydroxy-3-(4-(methylsulfinyl)butyl)thiazolidine-2-thione]	did not show any effect on cell viability	did not show any effect on cell viability	21 ± 4	0.6 ± 0.5	-0.1 ± 0.5	-0.5 ± 0.4	1.1 ± 0.8	0.4 ± 0.5
C=CCN1C(=S)SCC1O (stereo not shown) [allyl HTT, 3-allyl-4-hydroxythiazolidine-2-thione]	did not show any effect on cell viability	did not show any effect on cell viability	18 ± 5	-0.2 ± 0.3	-0.3 ± 0.3	0.4 ± 0.4	0.3 ± 0.5	-0.3 ± 0.3
